Data reported in publication PMC3322975 (The Journal of Biological Chemistry, 2012).

Each molecule was assayed against Kv7.2/7.3 M-channel (Homo sapiens, UniProt O43525+O43526) (assay: single-channel recording, excised inside-out patch).
Chain of Kv7.2/7.3 M-channel (O43526 whole entry): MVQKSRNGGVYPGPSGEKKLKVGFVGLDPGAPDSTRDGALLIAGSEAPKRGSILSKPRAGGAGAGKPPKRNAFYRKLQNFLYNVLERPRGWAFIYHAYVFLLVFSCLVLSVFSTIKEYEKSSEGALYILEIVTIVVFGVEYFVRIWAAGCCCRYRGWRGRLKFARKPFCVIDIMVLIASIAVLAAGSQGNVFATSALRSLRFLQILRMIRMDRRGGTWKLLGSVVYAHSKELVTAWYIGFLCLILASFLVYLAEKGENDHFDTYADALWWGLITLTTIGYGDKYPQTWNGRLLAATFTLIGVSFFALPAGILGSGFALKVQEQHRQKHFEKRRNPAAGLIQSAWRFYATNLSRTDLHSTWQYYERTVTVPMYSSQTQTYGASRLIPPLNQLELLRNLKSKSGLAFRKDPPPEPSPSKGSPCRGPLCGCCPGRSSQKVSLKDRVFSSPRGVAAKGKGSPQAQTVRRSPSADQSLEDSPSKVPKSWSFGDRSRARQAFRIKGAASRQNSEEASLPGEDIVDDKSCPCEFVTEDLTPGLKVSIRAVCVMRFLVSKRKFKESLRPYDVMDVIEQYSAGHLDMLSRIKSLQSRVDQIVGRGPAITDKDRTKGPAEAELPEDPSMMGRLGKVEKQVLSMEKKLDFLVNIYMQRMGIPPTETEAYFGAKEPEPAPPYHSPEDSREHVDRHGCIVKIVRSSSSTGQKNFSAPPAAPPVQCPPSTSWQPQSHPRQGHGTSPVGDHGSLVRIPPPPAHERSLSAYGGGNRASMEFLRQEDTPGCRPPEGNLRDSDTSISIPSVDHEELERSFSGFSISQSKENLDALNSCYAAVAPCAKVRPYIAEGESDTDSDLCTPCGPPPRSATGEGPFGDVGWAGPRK
Chain of Kv7.2/7.3 M-channel (O43525 whole entry): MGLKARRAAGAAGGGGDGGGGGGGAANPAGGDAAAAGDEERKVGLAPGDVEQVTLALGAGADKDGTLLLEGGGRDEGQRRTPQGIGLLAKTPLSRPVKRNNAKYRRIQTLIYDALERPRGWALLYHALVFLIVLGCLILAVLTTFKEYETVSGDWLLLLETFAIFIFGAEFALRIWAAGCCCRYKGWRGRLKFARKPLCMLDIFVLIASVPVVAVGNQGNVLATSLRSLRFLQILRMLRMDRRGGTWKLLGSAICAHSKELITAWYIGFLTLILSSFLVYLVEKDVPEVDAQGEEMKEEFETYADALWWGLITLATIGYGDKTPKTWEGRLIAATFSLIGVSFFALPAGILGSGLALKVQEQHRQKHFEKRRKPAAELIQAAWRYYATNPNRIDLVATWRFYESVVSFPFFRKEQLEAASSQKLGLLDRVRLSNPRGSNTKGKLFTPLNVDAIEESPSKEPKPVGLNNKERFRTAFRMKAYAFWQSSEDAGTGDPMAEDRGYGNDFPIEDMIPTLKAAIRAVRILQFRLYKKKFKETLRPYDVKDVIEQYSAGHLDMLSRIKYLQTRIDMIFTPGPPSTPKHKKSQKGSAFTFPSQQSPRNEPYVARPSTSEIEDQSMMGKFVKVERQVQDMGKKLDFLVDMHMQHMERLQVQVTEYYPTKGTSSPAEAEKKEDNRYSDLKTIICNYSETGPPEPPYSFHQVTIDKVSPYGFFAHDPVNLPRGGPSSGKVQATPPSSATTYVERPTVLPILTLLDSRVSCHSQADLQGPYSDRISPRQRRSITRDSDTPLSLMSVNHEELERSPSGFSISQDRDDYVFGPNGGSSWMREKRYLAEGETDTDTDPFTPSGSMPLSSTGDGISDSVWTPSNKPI
Type: cell-based
`CCCCCCCC(=O)OC[C@H](COP(=O)(O)O[C@H]1[C@H](O)[C@@H](O)[C@H](OP(=O)(O)O)[C@@H](O)[C@H]1O)OC(=O)CCCCCCC` [diC8PI(4)P] was tested, and the EC50 was 1.7 ± 0.3 µM.
For `CCCCCCCC(=O)OC[C@H](COP(=O)(O)O[C@@H]1[C@H](O)[C@H](O)[C@@H](OP(=O)(O)O)[C@H](OP(=O)(O)O)[C@H]1O)OC(=O)CCCCCCC` [diC8PI(4,5)P2], the EC50 was 1.1 ± 0.1 µM.
`CCCCCCCCc1ccc(CCC(N)(CO)COP(=O)(O)O)cc1` (stereo not drawn) [FTY720-P] gave an EC50 of 0.5 ± 0.001 µM.
`CCCCCCCC(=O)OC[C@H](COP(=O)(O)O[C@H]1[C@H](O)[C@@H](OP(=O)(O)O)[C@H](OP(=O)(O)O)[C@@H](OP(=O)(O)O)[C@H]1O)OC(=O)CCCCCCC` [diC8PI(3,4,5)P3] gave an EC50 of 1.1 ± 0.2 µM.
With `CCCCCCCC/C=C\CCCCCCCC(=O)OC[C@@H](O)COP(=O)(O)O` [LPA] the EC50 was 1.5 ± 0.4 µM.
Molecule `CCCCCCCCCCCCC/C=C/[C@@H](O)[C@@H](N)COP(=O)(O)O` [S-1-P] has an EC50 of 3.2 ± 0.6 µM.
